Measurements as given in patent publication US12421232B2, “Kinase inhibitor compounds and compositions and methods of use” (ICAHN SCHOOL OF MEDICINE AT MOUNT SINAI, priority 2018, dated 2025).

How the values were obtained:
DYRK1A = DYRK1A (Homo sapiens, UniProt Q13627); assay: FRET-based LanthaScreen Eu Kinase Binding Assay (Life Technologies)
[1] = system: human β-cells (dispersed human islet cells); assay: Human β-cell proliferation assay (Ki67 and insulin staining); format: cell-based; conditions: for Human β-Cell proliferation: 96 hours
PIK3CG = target: T1, PIK3CG (Homo sapiens, UniProt P48736); assay: KINOMEscan Assay (DiscoverX); format: binding; conditions: read-out: % DMSO Ctrl
T1 construct: purchased DiscoverX

PIM3 = target: T2, PIM3 (Homo sapiens, UniProt Q86V86); assay: KINOMEscan Assay (DiscoverX); format: binding; conditions: PIM3; 10 μM; read-out: % DMSO Ctrl
T2 construct: purchased DiscoverX

CSNK1G2 = target: T3, CSNK1G2 (Homo sapiens, UniProt P78368); assay: KINOMEscan Assay (DiscoverX); format: binding; conditions: CSNK1G2; 10 μM
T3 construct: purchased DiscoverX

HIPK2 = target: T4, HIPK2 (Homo sapiens, UniProt Q9H2X6); assay: KINOMEscan Assay (DiscoverX); format: binding; conditions: HIPK2; 10 μM
T4 construct: purchased DiscoverX

[2] = target: T5, JAK3(JH1DOMAIN-CATALYTIC) (Homo sapiens, UniProt P52333); assay: KINOMEscan Assay (DiscoverX); format: binding; conditions: JAK3(JH1DOMAIN-[…]); 10 μM; read-out: % DMSO Ctrl
T5 construct: JH1DOMAIN; purchased DiscoverX

[3] = system: NFAT2-GFP nuclear translocation in R7T1 rodent beta cells; assay: NFAT2 translocation assay; format: cell-based; conditions: 10 μM, 24 hours
Description: NFAT2T Translocation Assay. […] At least 1000 cells were counted.

FLT3(D835V) = target: T6, FLT3(D835V) (Homo sapiens, UniProt P36888, D835V); assay: KINOMEscan Assay (DiscoverX); format: binding; conditions: FLT3(D835V) mutant; 10 μM; read-out: % DMSO Ctrl
T6 construct: purchased DiscoverX
T6 sequence (P36888 27-993 D835V): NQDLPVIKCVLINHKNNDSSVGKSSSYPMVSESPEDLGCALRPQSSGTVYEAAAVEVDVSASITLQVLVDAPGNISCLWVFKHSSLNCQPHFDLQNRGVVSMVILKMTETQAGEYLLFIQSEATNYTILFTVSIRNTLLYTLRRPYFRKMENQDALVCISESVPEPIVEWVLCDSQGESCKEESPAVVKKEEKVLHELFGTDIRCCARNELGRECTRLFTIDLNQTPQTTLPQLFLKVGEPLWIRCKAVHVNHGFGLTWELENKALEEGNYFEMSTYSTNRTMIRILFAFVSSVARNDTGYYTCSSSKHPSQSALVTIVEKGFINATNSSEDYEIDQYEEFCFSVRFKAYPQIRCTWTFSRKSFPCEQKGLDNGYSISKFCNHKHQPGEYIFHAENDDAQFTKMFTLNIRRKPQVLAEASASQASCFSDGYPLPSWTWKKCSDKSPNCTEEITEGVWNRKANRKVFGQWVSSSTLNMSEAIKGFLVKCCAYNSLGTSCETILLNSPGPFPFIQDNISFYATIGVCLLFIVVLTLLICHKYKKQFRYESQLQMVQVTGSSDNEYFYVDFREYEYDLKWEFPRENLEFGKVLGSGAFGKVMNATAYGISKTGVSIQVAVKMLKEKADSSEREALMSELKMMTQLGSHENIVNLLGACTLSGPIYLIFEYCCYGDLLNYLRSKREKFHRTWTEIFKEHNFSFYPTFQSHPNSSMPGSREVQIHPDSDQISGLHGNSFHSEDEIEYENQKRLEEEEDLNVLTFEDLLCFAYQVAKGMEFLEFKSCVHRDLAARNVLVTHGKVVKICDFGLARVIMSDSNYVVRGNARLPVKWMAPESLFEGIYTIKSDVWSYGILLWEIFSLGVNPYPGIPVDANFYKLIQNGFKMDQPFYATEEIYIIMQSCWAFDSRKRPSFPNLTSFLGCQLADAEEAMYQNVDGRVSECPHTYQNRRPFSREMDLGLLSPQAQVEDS

HIPK3 = target: T7, HIPK3 (Homo sapiens, UniProt Q9H422); assay: KINOMEscan Assay (DiscoverX); format: binding; conditions: HIPK3; 10 μM
T7 construct: purchased DiscoverX

IRAK1 = target: T8, IRAK1 (Homo sapiens, UniProt P51617); assay: KINOMEscan Assay (DiscoverX); format: binding; conditions: IRAK1; 10 μM
T8 construct: purchased DiscoverX

VPS34 = target: T9, VPS34 (Homo sapiens, UniProt Q8NEB9); assay: KINOMEscan Assay (DiscoverX); format: binding; conditions: VPS34; 10 μM
T9 construct: purchased DiscoverX

CSNK2A1 = target: T10, CSNK2A1 (Homo sapiens, UniProt P68400); assay: KINOMEscan Assay (DiscoverX); format: binding; conditions: CSNK2A1; 10 μM
T10 construct: purchased DiscoverX

FLT3(ITD,D835V) = assay: KINOMEscan Assay (DiscoverX); format: binding; conditions: FLT3(ITD,D835V) mutant; 10 μM
FLT3(ITD) = assay: KINOMEscan Assay (DiscoverX); format: binding; conditions: FLT3(ITD) mutant; 10 μM
[4] = 10 μM, KI67 labeling of insulin cells

T3 sequence (P78368 whole entry): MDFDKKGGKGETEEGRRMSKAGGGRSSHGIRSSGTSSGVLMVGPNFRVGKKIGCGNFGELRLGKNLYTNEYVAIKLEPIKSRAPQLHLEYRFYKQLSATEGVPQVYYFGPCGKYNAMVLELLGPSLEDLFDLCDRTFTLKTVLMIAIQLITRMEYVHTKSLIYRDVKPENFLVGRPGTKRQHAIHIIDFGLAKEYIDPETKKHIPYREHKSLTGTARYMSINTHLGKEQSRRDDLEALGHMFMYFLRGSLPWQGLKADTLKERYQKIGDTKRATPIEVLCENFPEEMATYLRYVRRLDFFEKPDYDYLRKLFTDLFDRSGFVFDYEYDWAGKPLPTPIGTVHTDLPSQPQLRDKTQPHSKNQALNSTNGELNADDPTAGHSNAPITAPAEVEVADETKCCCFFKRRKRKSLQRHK
T7 sequence (Q9H422 whole entry): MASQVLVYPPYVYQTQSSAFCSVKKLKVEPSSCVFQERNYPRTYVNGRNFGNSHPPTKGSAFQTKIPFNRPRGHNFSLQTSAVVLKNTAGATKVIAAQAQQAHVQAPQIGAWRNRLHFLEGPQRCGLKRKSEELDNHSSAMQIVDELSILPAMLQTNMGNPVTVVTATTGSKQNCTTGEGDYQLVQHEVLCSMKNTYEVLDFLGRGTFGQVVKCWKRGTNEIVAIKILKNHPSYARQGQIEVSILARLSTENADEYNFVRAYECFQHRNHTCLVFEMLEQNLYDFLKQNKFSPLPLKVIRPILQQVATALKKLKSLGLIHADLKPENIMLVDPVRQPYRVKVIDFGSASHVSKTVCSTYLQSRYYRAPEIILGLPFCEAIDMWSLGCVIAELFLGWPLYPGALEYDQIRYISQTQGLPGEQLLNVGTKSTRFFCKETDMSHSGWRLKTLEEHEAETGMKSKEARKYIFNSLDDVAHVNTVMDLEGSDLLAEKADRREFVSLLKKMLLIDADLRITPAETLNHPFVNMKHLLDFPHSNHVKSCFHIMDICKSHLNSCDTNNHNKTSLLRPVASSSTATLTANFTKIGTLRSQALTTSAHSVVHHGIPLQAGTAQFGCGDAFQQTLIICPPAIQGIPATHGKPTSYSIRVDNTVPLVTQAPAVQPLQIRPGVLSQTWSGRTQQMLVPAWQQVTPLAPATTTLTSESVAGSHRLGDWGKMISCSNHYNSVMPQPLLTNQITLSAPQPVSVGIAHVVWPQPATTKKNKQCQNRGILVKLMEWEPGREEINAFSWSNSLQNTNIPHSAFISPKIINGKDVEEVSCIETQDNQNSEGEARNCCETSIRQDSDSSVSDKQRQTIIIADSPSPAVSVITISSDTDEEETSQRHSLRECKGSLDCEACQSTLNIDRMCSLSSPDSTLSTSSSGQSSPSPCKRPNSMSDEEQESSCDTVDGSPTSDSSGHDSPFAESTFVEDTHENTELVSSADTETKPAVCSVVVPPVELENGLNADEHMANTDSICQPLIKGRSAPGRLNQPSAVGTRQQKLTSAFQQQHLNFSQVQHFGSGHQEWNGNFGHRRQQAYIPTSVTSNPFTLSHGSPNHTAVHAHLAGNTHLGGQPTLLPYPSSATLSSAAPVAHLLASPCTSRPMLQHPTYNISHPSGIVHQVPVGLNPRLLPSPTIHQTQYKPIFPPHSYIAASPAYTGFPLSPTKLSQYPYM
T8 sequence (P51617 whole entry): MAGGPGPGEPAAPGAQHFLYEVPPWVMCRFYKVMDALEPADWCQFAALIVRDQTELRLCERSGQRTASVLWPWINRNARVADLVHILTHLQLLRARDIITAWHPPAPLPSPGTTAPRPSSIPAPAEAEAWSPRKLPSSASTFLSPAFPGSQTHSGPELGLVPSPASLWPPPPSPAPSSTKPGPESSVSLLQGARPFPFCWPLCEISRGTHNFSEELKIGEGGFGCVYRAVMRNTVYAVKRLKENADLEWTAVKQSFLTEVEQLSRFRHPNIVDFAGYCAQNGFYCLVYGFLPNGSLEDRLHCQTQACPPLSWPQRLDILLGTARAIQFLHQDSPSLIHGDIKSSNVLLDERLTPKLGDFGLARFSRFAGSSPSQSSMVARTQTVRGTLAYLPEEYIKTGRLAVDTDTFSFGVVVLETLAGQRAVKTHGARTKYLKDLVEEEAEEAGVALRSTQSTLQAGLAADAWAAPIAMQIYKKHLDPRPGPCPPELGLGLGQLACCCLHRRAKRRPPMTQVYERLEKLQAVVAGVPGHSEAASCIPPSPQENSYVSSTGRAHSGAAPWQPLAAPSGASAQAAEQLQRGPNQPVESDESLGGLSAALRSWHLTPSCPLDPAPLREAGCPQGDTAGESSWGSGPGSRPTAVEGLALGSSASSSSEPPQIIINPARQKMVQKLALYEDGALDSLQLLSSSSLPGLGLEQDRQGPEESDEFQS
T1 sequence (P48736 whole entry): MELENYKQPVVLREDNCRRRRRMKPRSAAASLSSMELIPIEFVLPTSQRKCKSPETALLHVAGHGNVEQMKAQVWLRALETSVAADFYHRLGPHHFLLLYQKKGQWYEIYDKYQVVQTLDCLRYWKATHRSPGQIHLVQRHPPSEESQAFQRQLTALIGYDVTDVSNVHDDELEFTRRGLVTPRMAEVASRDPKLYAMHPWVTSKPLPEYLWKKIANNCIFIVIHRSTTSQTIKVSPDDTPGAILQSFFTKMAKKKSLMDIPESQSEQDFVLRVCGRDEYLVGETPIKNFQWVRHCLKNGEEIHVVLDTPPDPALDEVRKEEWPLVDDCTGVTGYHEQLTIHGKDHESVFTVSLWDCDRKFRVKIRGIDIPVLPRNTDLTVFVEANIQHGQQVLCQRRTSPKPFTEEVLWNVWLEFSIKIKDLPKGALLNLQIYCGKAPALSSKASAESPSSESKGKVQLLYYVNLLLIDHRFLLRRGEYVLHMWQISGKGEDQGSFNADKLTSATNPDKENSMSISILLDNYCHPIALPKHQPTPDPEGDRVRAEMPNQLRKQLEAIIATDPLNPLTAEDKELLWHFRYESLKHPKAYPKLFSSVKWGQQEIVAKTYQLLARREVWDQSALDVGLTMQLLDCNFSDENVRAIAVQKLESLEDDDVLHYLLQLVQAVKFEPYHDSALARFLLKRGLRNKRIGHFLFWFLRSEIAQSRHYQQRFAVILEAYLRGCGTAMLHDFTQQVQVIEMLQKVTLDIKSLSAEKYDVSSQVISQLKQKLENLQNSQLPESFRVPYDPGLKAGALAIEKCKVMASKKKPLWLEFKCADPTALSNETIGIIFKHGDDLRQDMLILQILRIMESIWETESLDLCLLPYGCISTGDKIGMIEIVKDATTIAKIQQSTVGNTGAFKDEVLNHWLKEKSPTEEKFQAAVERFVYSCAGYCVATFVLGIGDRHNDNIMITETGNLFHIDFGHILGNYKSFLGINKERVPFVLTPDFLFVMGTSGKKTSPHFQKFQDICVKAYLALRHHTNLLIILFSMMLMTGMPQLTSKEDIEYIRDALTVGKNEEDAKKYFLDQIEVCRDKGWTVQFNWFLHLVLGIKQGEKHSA
T4 sequence (Q9H2X6 whole entry): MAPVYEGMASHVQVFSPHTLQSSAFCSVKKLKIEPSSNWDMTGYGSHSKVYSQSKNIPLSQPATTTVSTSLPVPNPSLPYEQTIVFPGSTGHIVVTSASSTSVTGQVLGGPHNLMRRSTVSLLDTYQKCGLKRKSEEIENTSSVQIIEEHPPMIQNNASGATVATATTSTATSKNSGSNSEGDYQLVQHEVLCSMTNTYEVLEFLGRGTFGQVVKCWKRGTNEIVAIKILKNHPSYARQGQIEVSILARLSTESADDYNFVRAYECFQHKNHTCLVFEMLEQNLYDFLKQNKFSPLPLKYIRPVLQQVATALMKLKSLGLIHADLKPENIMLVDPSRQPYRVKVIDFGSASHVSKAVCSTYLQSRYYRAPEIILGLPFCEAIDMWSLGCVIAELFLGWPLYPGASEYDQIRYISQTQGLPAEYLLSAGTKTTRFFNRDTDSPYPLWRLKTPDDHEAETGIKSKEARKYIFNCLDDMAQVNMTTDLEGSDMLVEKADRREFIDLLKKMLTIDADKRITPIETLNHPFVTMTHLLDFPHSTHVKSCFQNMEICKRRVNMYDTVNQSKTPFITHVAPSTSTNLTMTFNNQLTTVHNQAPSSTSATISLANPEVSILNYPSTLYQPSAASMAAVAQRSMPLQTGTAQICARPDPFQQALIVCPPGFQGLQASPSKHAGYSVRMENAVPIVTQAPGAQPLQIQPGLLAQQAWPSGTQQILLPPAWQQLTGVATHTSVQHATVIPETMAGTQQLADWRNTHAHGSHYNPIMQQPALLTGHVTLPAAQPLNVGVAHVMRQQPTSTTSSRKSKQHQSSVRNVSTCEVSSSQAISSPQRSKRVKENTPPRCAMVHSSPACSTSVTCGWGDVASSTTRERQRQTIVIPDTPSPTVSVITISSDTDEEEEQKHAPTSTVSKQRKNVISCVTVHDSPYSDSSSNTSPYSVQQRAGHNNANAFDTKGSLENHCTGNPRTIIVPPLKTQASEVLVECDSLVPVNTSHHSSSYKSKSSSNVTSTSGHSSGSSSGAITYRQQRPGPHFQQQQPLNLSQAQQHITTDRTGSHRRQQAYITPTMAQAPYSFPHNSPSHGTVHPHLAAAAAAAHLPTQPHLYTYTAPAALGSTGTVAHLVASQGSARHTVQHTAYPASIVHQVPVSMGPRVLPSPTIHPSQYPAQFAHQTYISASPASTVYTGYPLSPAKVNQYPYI
T10 sequence (P68400 whole entry): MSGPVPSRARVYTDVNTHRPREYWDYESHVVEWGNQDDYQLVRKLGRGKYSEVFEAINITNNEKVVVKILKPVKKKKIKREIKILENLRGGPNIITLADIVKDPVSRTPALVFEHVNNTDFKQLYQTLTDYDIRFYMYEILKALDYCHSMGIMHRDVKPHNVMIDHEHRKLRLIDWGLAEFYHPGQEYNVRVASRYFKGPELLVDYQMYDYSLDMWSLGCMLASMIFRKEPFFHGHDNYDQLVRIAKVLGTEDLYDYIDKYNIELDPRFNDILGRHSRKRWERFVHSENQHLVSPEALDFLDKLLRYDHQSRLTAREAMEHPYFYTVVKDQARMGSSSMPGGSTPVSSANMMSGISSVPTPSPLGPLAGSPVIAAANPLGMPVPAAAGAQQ

COc1ccc2c3ccnc(C)c3n(CCCCc3noc(N)n3)c2c1 [Compound 20-38c, 5-(5-(7-methoxy-1-methyl-β-carbolin-9-yl)butyl)-5-amino-1,2,4-oxadiazole]
IC50 (DYRK1A): 103 nM

COc1ccc2c(c1)[nH]c1c(N3CCCC3c3ccccc3)nccc12 (stereo not drawn) [Compound 1-6d, 1-(2-Phenylpyrrolidin-1-yl)-7-Methoxy-9H-β-Carboline]
human β-cell proliferation (in words) ([1]; concentration not given): did not show any β-cell proliferation

COc1ccc2c3ccnc(C)c3n(CCc3ccccc3)c2c1 [Compound 20-1y, 2-(7-Methoxy-1-methyl-β-carbolin-9-yl)-1-phenylethane]
IC50 (DYRK1A): 31 nM

COc1ccc2c(c1)[nH]c1c(CO)nccc12 [Compound 2-2, 1-Hydroxymethyl-7-Methoxy-9H-β-Carboline]
remaining binding at 10 µM (PIK3CG): 44% | remaining binding at 10 µM (PIM3): 77% | % DMSO Ctrl (CSNK1G2): no inhibition | % DMSO Ctrl (HIPK2): no inhibition | remaining binding at 10 µM [2]: 99% | NFAT2 translocation to nucleus [3]: drove NFAT2 translocation to nucleus | remaining binding at 10 µM (FLT3(D835V)): 37% | % DMSO Ctrl (HIPK3): no inhibition | % DMSO Ctrl (IRAK1): no inhibition | % DMSO Ctrl (VPS34): no inhibition | % DMSO Ctrl (CSNK2A1): no inhibition | beta cell toxicity ([1]; at 30 μM): did not cause toxicity

C=CCn1c2cc(OC)ccc2c2ccnc(C)c21 [Compound 20-1t, 3-(7-Methoxy-1-methyl-β-carbolin-9-yl)-propan-1-ene]
IC50 (DYRK1A): 42 nM

COc1ccc2c3ccnc(C)c3n(CCCC(N)=O)c2c1 [Compound 20-2c, 4-(7-Methoxy-1-methyl-β-carbolin-9-yl)butanamide]
% DMSO Ctrl (FLT3(ITD,D835V)): 38 % DMSO Ctrl | % DMSO Ctrl (FLT3(ITD)): 57 % DMSO Ctrl

COc1ccc2c3ccnc(C)c3n(Cc3noc(N)n3)c2c1 [Compound 20-38a, 1-(1-(7-methoxy-1-methyl-β-carbolin-9-yl)methyl)-5-amino-1,2,4-oxadiazole]
IC50 (DYRK1A): 138 nM

COc1ccc2c3ccnc(C)c3n(CCC(C)(C)C(N)=O)c2c1 [Compound 20-40, 2,2-dimethyl-4-(7-Methoxy-1-methyl-β-carbolin-9-yl)butanamide]
IC50 (DYRK1A): 20 nM

COc1ccc2c3ccnc(C)c3n(CCc3noc(N)n3)c2c1 [Compound 20-38b, 3-(3-(7-methoxy-1-methyl-β-carbolin-9-yl)ethyl)-5-amino-1,2,4-oxadiazole]
IC50 (DYRK1A): 66 nM

COc1ccc2c3ccnc(C)c3n(Cc3ccccc3)c2c1 [Compound 20-1x, 1-(7-Methoxy-1-methyl-β-carbolin-9-yl)-1-phenylmethane]
IC50 (DYRK1A): 275 nM

COc1ccc2c(c1)[nH]c1c(N3CCCC3Cc3ccccc3)nccc12 (stereo not drawn) [Compound 1-6f, 1-(2-Benzylpyrrolidin-1-yl)-7-Methoxy-9H-β-Carboline]
human β-cell proliferation (in words) ([1]; concentration not given): did not show any β-cell proliferation

COc1ccc2c(c1)[nH]c1c(C(C)=O)nccc12 [Compound 3-2, 1-acetyl-7-methoxy-9H-β-carboline]
human β-cell proliferation (in words) [1, 4]: reduced β-cell proliferation | human β-cell proliferation (in words) ([1]; 30 μM): proliferation in the range comparable to harmine | human β-cell proliferation (in words) ([1]; concentration not given): human β-cell proliferation comparable to that of harmine

COCCn1cc(CCCn2c3cc(OC)ccc3c3ccnc(C)c32)nn1 [Compound 20-24b, 4-(3-(7-Methoxy-1-methyl-β-carbolin-9-yl)propyl)-1-(2-methoxyethyl)-1,2,3-triazole]
IC50 (DYRK1A): 437 nM

4-(7-Methoxy-1-methyl-β-carbolin-9-yl)propionitrile [Compound 20-1o]
Human β-Cell proliferation ([1]; 10 μM): 1 (10)

CCCC(C)NC(=O)C(C)(C)CCn1c2cc(OC)ccc2c2ccnc(C)c21 (stereo not drawn) [Compound 20-10l, N-(1-methylbutyl)-4-(7-Methoxy-1-methyl-β-carbolin-9-yl)-α,α-dimethylbutanamide]
IC50 (DYRK1A): 77 nM

Ethyl 4-(7-Methoxy-1-methyl-β-carbolin-9-yl)butanecarboximidate hydrochloride [Compound 20-22]
Human β-Cell proliferation ([1]; 10 μM): 0.8 (10)

COc1ccc2c(c1)[nH]c1c(N3CCC3)nccc12 [Compound 1-6a, 1-(Azetidin-1-yl)-7-Methoxy-9H-β-Carboline]
human β-cell proliferation (in words) ([1]; concentration not given): did not show any β-cell proliferation

Cc1nccc2c1[nH]c1cc(OCCCCCC(N)=O)ccc12 [Compound 10-3e, 6-(7-oxy-1-methyl-9-H-b-carbolin)hexanamide]
Human β-Cell proliferation ([1]; 10 μM): 0.2 (10) | human β-cell proliferation (in words) ([1]; concentration not given): reduced jβ-cell proliferation compared to harmine

COc1ccc2c(c1)[nH]c1c(Cl)nccc12 [Compound 1-5, 1-Chloro-7-Methoxy-9H-β-Carboline]
human β-cell proliferation (in words) [1, 4]: very good human β-cell proliferation | human β-cell proliferation (in words) ([1]; concentration not given): human β-cell proliferation comparable to that of harmine

C#CCCn1c2cc(OC)ccc2c2ccnc(C)c21 [Compound 20-23b, 4-(7-Methoxy-1-methyl-β-carbolin-9-yl)-but-1-yne]
IC50 (DYRK1A): 33 nM

COc1ccc2c(c1)[nH]c1c(N3CCCC3)nccc12 [Compound 1-6b, 1-(Pyrrolidin-1-yl)-7-Methoxy-9H-β-Carboline]
human β-cell proliferation (in words) ([1]; concentration not given): did not show any β-cell proliferation
